“Also recorded” adds a separate entry of the source.
Experiments:
[1] = target: T1, KCNQ2 mutant R207W (Homo sapiens, UniProt O43526, R207W); type: cell-based; details: RTG (25 μM, −40 mV, FIG. 11B)
T1 construct: expressed in transfected cells; host or cells: CHO cells
From the text: FIGS. 10A-D present the potentiating effect of NH29, an exemplary channel opener compound according to embodiments of the present invention, on wild type KCNQ2 (FIGS. 10A and 10B) and R207W mutant (FIGS. 10C and 10D) channels, as expressed in activation curve measurements, showing that NH29 left-shifts the activation curve (ΔV50) by −15.5 mV and −5.5 mV in the case of the wild-type and the mutant, respectively, and showing that NH29 enhances the current of wild-type and the mutant by about 3.4-fold (at −40 mV) and 1.5-fold (at −20 mV), respectively.
(§1) FIGS. 11A-F present the potentiating effect of NH29, an exemplary channel opener compound according to embodiments of the present invention, and Retigabine, on KCNQ2 mutants R207W and W236L mutant. Shown are representative traces recorded from CHO cell transfected with the KCNQ2 mutant R207W 0, 1 and 4-4.5 minutes after external application of 25 μM of NH29 and wherein the membrane potential was stepped from −90 mV holding potential to −20 mV for 1.5 seconds pulse duration (FIG. 11A), or 0, 1 and 4 minutes after external application of 25 μM of Retigabine wherein the membrane potential was stepped from −90 mV holding potential to −40 mV for 1.5 seconds pulse duration (FIG. 11B). FIGS. 11C and 11D show representative traces recorded from CHO cells transfected with the KCNQ2 mutant W236L 0, 1 and 6 minutes after external application of 25 μM of NH29 (FIG. 11C) or 0 and 5 minutes after external application of 10 μM of Retigabine (FIG. 11D) and wherein the membrane potential was stepped from −90 mV holding potential to −40 mV for 1.5 seconds pulse duration. FIG. 11E presents superimposed traces, showing the effects of Retigabine (RTG) and NH29 on the channel activity of KCNQ2 mutant W236L as measured at −40 mV; and FIG. 11F presents a bar diagram comparing the potentiating effect of NH29 and Retigabine on native KCNQ2 and KCNQ2 mutants, wherein the opener effect is expressed as percent of the control current in the absence of the opener.
(§2) Voltage-clamp recordings in CHO cells were performed, using the whole-cell configuration of the patch-clamp technique. Signals were amplified using an Axopatch 200B patch-clamp amplifier (Molecular Devices, Sunnyvale, Calif.), sampled at 2 kHz and filtered at 800 Hz via a 4-pole Bessel low pass filter. Data were acquired using pClamp 9.2 software (Molecular Devices) and an IBM compatible Pentium IV computer in conjunction with a DigiData 1322A interface (Molecular Devices). The patch pipettes were pulled from borosilicate glass (Warner Instrument Corp, USA) with a resistance of 2-5 MΩ. For K^+ current recordings in CHO cells, the intracellular pipette solution contained (in mM): 130 KCl, 1 MgCl2, 5 K2ATP, 5 EGTA, 10 HEPES, adjusted with KOH to pH 7.4 (290 mOsm). The extracellular solution contained (in mM): 140 NaCl, 4 KCl, 1.8 CaCl2, 1.2 MgCl2, 11 glucose, 5.5 HEPES, adjusted with NaOH to pH 7.4 (310 mOsm). Series resistances (3-13 MΩ) were compensated (75-90%) and periodically monitored.

[2] = target: T2, KCNQ2 mutant W236L (Homo sapiens, UniProt O43526, W236L); experiment: KCNQ2 mutant W236L in CHO cells; type: cell-based; details: 10 μM retigabine; 10 μM or 25 μM NH29
T2 construct: expressed in transfected cells; host or cells: CHO cells
Experimental: as §1, with “FIG. 11E presents superimposed traces, showing the effects of Retigabine (RTG) and NH29 on the channel activity of KCNQ2 mutant W236L as measured at −40 mV; and FIG. 11F presents a bar diagram comparing the potentiating effect of NH29 and Retigabine on native KCNQ2 and KCNQ2 mutants, wherein the opener effect is expressed as percent of the control current in the absence of the opener.” left out
Voltage-clamp recordings in CHO cells were performed, using the whole-cell configuration of the patch-clamp technique. […] Series resistances (3-13 MΩ) were compensated (75-90%) and periodically monitored.

[3] = target: T3, KCNQ2 mutant R198A (Homo sapiens, UniProt O43526, R198A); experiment: KCNQ2 S4 mutant R198A; type: cell-based; details: RTG
T3 construct: expressed in transfected cells
From the text: (§3) FIGS. 12A-F present the potentiating effect of NH29, an exemplary channel opener compound according to embodiments of the present invention, on selected KCNQ2 mutants. Shown are bar diagrams comparing the potentiating effect of NH29 on native KCNQ2 and KCNQ2 mutants, wherein the mutated amino acids are located at the S1-S2 helix region (FIG. 12A) or S4 helix region (FIG. 12D) and wherein the opener effect is expressed as percent of the control current in the absence of the opener. For comparison, marked as a green line, is the observed current increase of native KCNQ2 by NH29. FIGS. 12B 12C, 12E and 12F present representative traces recorded from CHO cell transfected with the KCNQ2 mutant S122A, S121A, L206C and R201A respectively, before and after external application of 25 μM of NH29 and wherein the membrane potential was stepped from −90 mV holding potential to −40 mV for 1.5 seconds pulse duration.
(§4) Voltage-clamp recordings in CHO cells were performed, using the whole-cell configuration of the patch-clamp technique. Signals were amplified using an Axopatch 200B patch-clamp amplifier (Molecular Devices, Sunnyvale, Calif.), sampled at 2 kHz and filtered at 800 Hz via a 4-pole Bessel low pass filter. […] Series resistances (3-13 MΩ) were compensated (75-90%) and periodically monitored.

[4] = target: T4, KCNQ2 mutant S121A (Homo sapiens, UniProt O43526, S121A); experiment: KCNQ2 S1-S2 mutant S121A in CHO cells; type: cell-based; details: RTG
T4 construct: expressed in transfected cells; host or cells: CHO cells
From the text: as §3, §4

[5] = target: T5, Kv7.2/3 channels (Homo sapiens, UniProt O43525+O43526); experiment: Kv7.2/3 channels coexpressed in CHO cells, whole-cell patch-clamp; type: cell-based
T5 construct: expressed in transfected cells; host or cells: CHO cells
Experimental: Chinese hamster ovary (CHO) cells were grown in Dulbecco's modified Eagle's medium (DMEM) supplemented with 2 mM glutamine, 10% fetal calf serum and antibiotics. Briefly, 40,000 cells seeded on poly-D-lysine-coated glass coverslips (13 mm diameter) in a 24-multiwell plate were transfected with pIRES-CD8 (0.5 μg) as a marker for transfection, and with Kv7.2 (0.5 μg) and Kv7.3 (0.5 μg) or TRPV1 […] or TRPV6 […].
For electrophysiology, transfected cells were visualized approximately 40 hours following transfection, using anti-CD8 antibody-coated beads. Transfection was performed using Fugene 6 (Roche, Indianapolis Ind., USA) according to the manufacturer's protocol.
as §2, with “Data were acquired using pClamp 9.2 software (Molecular Devices) and an IBM compatible Pentium IV computer in conjunction with a DigiData 1322A interface (Molecular Devices).” left out, “mOsm).” for “mOsm). Series resistances (3-13 MΩ) were compensated (75-90%) and periodically monitored.”
Data analysis was performed using the Clampfit program (pClamp 9.2, Molecular Devices), Microsoft Excel (Microsoft) and Prism 4.0 (GraphPad). Chord conductance (G) was calculated by using the following equation: G=I/(V−Vrev) where I corresponds to the current amplitude measured at the end of the pulse and Vrev, the calculated reversal potential. G was estimated at various test voltages V and then, normalized to a maximal conductance value, Gmax. Activation curves were fitted by one Boltzmann distribution: G/Gmax=1/{1+exp[(V50−V)/s]} where V50 is the voltage at which the current is half-activated and s is the slope factor. All data were expressed as mean±SEM. Statistically significant differences were assessed by Student's t-test. Analysis of sEPSCs and sIPSCs was done using the Clampfit program (pClamp 9.2, Molecular Devices) and included evaluation of the individual events as well as the average event amplitude and the integral of the event (total charge transfer).
In these studies, the impact of the compounds on M-channel activity was measured by the heterologous coexpression of Kv7.2 and Kv7.3 subunits in CHO cells.

[6] = system: DRG neurons; experiment: Current-clamp recordings in cultured DRG neurons; type: cell-based, rat
Experimental: For dorsal root ganglion (DRG) neuronal cultures, ganglia were dissected from 2-5 day-old Sprague-Dawley rats killed by decapitation. DRGs were placed in Hank's balanced saline solution (HBSS) and prepared by enzymatic dissociation. Briefly, after 30 minutes incubation in 5 mg/ml dispase, 2 mg/ml collagenase type 1A and 0.1 mg/ml DNase (Invitrogen/Gibco, Carlsbad, Calif.) in Ca^2+ and Mg^2+-free HBSS, the ganglia were mechanically triturated with a fire-polished glass Pasteur pipette. The ganglia were then centrifuged for 5 minutes at 80×g and resuspended in DMEM supplemented with 2 mM L-glutamine, 16.5 mM NaHCO3, 6 g/l glucose, 5 ml penicillin/streptomycin and 10% fetal calf serum.
For electrophysiological recording, dissociated neurons were plated on 13 mm glass coverslips, previously coated with poly-D-lysine (1 mg/ml) and laminin (10 μg/ml) and used at 1-2 days in culture.
For current-clamp recordings in primary cultured neurons, the patch pipettes were filled with (in mM): 135 KCl, 1 K2ATP, 1 MgATP, 2 EGTA, 1.1 CaCl2, 5 glucose, 10 HEPES, adjusted with KOH at pH 7.4 (315 mOsm). The external solution contained (in mM): 150 NaCl, 2.5 KCl, 2 CaCl2, 2 MgCl2, 15 glucose, 10 HEPES, adjusted with NaOH at pH 7.4 (325 mOsm). Recordings were sampled at 5 kHz and filtered at 2 KHz via a 4-pole Bessel low pass filter. A liquid junction potential of about −15.6 mV was measured between the intracellular and saline solutions and corrected on-line.
For evoking spike discharges, 75-200 pA square depolarizing current pulses were injected into neurons for 400 ms. For rheobase current measurements, 100-1100 pA square depolarizing current pulses were injected into neurons for 2 ms.

[7] = system: DRG neurons; experiment: Current-clamp recordings in cultured DRG neurons; type: cell-based, rat; details: 1 μM NH17; about 10-20 pA for 400 ms; control 1±0; n=5

T1 sequence (O43526 whole entry R207W): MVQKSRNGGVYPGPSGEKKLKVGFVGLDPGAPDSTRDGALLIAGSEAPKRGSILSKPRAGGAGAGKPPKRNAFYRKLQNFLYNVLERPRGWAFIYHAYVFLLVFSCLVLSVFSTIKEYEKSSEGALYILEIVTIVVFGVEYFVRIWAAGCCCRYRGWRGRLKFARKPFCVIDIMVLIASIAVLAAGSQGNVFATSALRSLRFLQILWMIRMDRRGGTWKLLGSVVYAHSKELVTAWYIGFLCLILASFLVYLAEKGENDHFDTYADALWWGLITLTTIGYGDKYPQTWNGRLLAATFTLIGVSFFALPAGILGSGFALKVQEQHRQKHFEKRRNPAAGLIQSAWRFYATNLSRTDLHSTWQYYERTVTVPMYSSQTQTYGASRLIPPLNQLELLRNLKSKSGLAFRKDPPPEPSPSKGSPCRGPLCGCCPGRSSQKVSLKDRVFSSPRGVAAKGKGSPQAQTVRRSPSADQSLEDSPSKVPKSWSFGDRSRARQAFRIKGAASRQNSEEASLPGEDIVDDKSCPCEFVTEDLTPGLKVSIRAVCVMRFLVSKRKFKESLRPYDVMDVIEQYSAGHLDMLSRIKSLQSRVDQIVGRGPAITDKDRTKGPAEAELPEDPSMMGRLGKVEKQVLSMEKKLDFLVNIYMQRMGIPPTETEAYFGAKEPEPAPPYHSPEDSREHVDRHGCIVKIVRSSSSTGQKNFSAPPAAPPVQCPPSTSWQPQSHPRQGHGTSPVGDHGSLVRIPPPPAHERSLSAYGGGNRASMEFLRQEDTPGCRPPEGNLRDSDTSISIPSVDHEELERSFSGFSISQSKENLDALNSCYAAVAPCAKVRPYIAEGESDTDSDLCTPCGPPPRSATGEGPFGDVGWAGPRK
T3 sequence (O43526 whole entry R198A): as the sequence (O43526 whole entry R207W) above, with R198A, W207R counted along it
T4 sequence (O43526 whole entry S121A): as the sequence (O43526 whole entry R207W) above, with S121A, W207R counted along it
T2 sequence (O43526 whole entry W236L): as the sequence (O43526 whole entry R207W) above, with W207R, W236L counted along it

SMILES | fold increase of current amplitude [1] | effect of point mutation W236L on the opener effect [2] | fold increase of current amplitude [3] | fold increase of current [4] | inhibition at 25 µM ([5]; CHO, 25 μM, membrane potentials from −60 to +50 mV, read-out: inhibition of the Kv7.2/3 current) | Activity ([5]; M-channel modulation, Kv7.2 and Kv7.3 subunits coexpressed in CHO cells) | EC50 ([5]; compounds whose Activity is Blocker, read-out: EC50) | IC50 ([5]; recombinant Kv7.2/3 in CHO cells, read-out: IC50, blockade of the K+ currents) | decrease in rheobase current ([6]; 1 μM NH17) | depolarization of DRG membrane potential (ΔV) ([6]; 1 μM NH17, within 2 minutes) | rheobase current to generate a single spike ([6]; 1 μM NH17, 2 ms injection, control 650±71 pA, n=6) | number of evoked spikes [7]
CCOC(=O)Nc1ccc(NCc2ccc(F)cc2)cc1N [retigabine, N-(2-amino-4-(4-fluorobenzylamino)-phenyl)carbamic acid ethyl ester, reference compound] | more than 6 fold | completely abolished the opener effect | 4.4 fold | more than 5 fold | – | – | – | – | – | – | – | –
Cl.NCCOCCOC(=O)Cc1ccccc1Nc1c(Cl)cccc1Cl [NH17] | – | – | – | – | > 90% | potent M-channel blockers; also recorded: Blocker | 11 µM | 11 µM | about 300 pA | +7±1 mV | 347±44 pA | 12±2

— US9403756B2, “N-phenyl anthranilic acid derivatives and uses thereof” (Ramot at Tel-Aviv University Ltd., priority 2007, dated 2016)
